ChEMBL document CHEMBL1144872, “A quantitative structure-activity relationship and pharmacophore modeling investigation of aryl-X and heterocyclic bisphosphonates as bone resorption agents” (J Med Chem, 2003)

target: bone resorption (Rattus norvegicus)

| Compound | IC50 [nM] |
| --- | --- |
| Cc1cccc(OCCCN(C)CCC(O)(P(=O)(O)O)P(=O)(O)O)c1 | 4.27 |
| CCCCc1cnc(NC(P(=O)(O)O)P(=O)(O)O)s1 | 2.69 |
| O=P(O)(O)C(Nc1ncc[nH]1)P(=O)(O)O | 1950 |
| O=C(c1ccccc1)n1ccnc1CC(O)(P(=O)(O)O)P(=O)(O)O | 64.6 |
| O=P(O)(O)C(O)(CCNCCCCc1ccccc1)P(=O)(O)O | 2.69 |
| CN(CCCCOc1ccccc1)CCC(O)(P(=O)(O)O)P(=O)(O)O | 10.1 |
| CCCN(CCCOc1ccccc1)CCC(O)(P(=O)(O)O)P(=O)(O)O | 24 |
| CN(CCCCCCc1ccccc1)CCC(O)(P(=O)(O)O)P(=O)(O)O | 3630 |
| CN(CCOc1ccc(Cl)cc1)CCC(O)(P(=O)(O)O)P(=O)(O)O | 4.07 |
| O=P(O)(O)C(O)(CCNCCCOc1ccccc1)P(=O)(O)O | 3.25 |
| CN(CCCc1ccccc1)CCC(O)(P(=O)(O)O)P(=O)(O)O | 2.59 |
| Cc1cnc(NC(P(=O)(O)O)P(=O)(O)O)s1 | 5.13 |
| Cc1nc[nH]c1CC(O)(P(=O)(O)O)P(=O)(O)O | 5.13 |
| CN(CCCCCCOc1ccccc1)CCC(O)(P(=O)(O)O)P(=O)(O)O | 17600 |
| CN(CCCOc1ccccc1)CCC(O)(P(=O)(O)O)P(=O)(O)O | 1.29 |
| CN(CCc1ccccc1)CCC(O)(P(=O)(O)O)P(=O)(O)O | 3.92 |
| CN(CCCOc1ccc(F)cc1)CCC(O)(P(=O)(O)O)P(=O)(O)O | 1.45 |
| CN(CCCOc1ccccc1)CCCC(O)(P(=O)(O)O)P(=O)(O)O | 246 |
| CCc1cnc(NC(P(=O)(O)O)P(=O)(O)O)s1 | 4.82 |

Further lines, results first:

| IC50 [nM] | Compound |
| --- | --- |
| 632 | CC(C)c1cnc(NC(P(=O)(O)O)P(=O)(O)O)s1 |
| 1.97 | Cn1ccnc1CC(O)(P(=O)(O)O)P(=O)(O)O |
| 3.12 | CN(CCCOc1ccc(Cl)cc1)CCC(O)(P(=O)(O)O)P(=O)(O)O |
| 18 | CN(CCCSc1ccc(Cl)cc1)CCC(O)(P(=O)(O)O)P(=O)(O)O |
| 185 | O=P(O)(O)C(Nc1nccn1Cc1ccccc1)P(=O)(O)O |
| 18.5 | Cn1ccnc1NC(P(=O)(O)O)P(=O)(O)O |
| 17.8 | O=P(O)(O)C(O)(Cc1ncc[nH]1)P(=O)(O)O |
| 7.08 | O=P(O)(O)C(Nc1ncc(CCc2ccccc2)s1)P(=O)(O)O |
| 66.7 | O=P(O)(O)C(O)(CCc1cnc[nH]1)P(=O)(O)O |
| 1.66 | CN(CCCc1ccc(Cl)cc1)CCC(O)(P(=O)(O)O)P(=O)(O)O |
| 18.2 | O=P(O)(O)C(Nc1nccs1)P(=O)(O)O |
| 72.1 | CCN(CCCOc1ccccc1)CCC(O)(P(=O)(O)O)P(=O)(O)O |
| 885 | O=P(O)(O)C(O)(CCNCCc1ccccc1)P(=O)(O)O |
| 18.2 | O=P(O)(O)C(O)(CCNCCCSc1ccccc1)P(=O)(O)O |
| 55.8 | O=P(O)(O)C(O)(CCNCCCc1ccccc1)P(=O)(O)O |
| 6.15 | CCCc1cnc(NC(P(=O)(O)O)P(=O)(O)O)s1 |
| 157 | O=P(O)(O)C(O)(CCn1ccnc1)P(=O)(O)O |
| 1170 | CCCCN(CCCOc1ccccc1)CCC(O)(P(=O)(O)O)P(=O)(O)O |
| 0.618 | CN(CCCSc1ccccc1)CCC(O)(P(=O)(O)O)P(=O)(O)O |
| 733 | O=P(O)(O)C(Cc1nccs1)P(=O)(O)O |
| 5 | Cc1ncn(CC(O)(P(=O)(O)O)P(=O)(O)O)c1C |
| 2200 | O=P(O)(O)C(O)(Cn1cncn1)P(=O)(O)O |
| 347 | Cc1csc(NC(P(=O)(O)O)P(=O)(O)O)n1 |
| 2.82 | COc1ccc(OCCCN(C)CCC(O)(P(=O)(O)O)P(=O)(O)O)cc1 |
